In series [1] the test system is primary mouse hepatocytes. The series can be described thus: Stability/metabolization of [^18F]FCA with primary mouse hepatocytes. The conditions noted are these: 37°C.
Assay in series [2]: as above
The conditions noted are these: mouse.

Series [3] can be described thus: Stability of [^18F]FCA in mouse serum.
The test system of series [4] is hepatobiliary transport of [^18F]FCA. In words: Dynamic PET of [^18F]FCA in control, rifampicin and bosentan treated FVB-mice. The conditions noted are these: female, FVB, mouse, in vivo. As for the experimental part:
Hepatobiliary transport of the tracer was evaluated in female wild-type FVB mice (5 weeks old, Charles River). The animals were housed in accordance with European Ethics Committee guidelines. The animal studies were approved by the Animal Experimental Ethical Committee of Ghent University (ECD 15/69). Food and water was provided ad libitum. Animals were fasted overnight before the PET-scan.
Mice were anesthetized with 1.5 v:v % isoflurane in 100% O2 for the duration of the experiment. An intravenous polyethylene line was placed in the lateral tail vein. The animals were placed in the small animal PET/CT-scanner (FLEX Triumph II small animal PET/CT-scanner; PET field of view: 7.5 cm axial; 1.3 mm spatial resolution; TriFoil Imaging) on a heated bed. A CT-scan was acquired for anatomical correlation.
The interaction of rifampicin (Sigma Aldrich) and bosentan (Activate Scientific) on in vivo [^18F]FCA transport was examined. FVB-mice were divided into 3 different groups (n = 3 per group): rifampicin, bosentan, and a control DMSO vehicle treated group). Both drugs were administered in doses of 100 mg/kg, intra-peritoneal in DMSO:PBS 70:30 v:v (rifampicin) or DMSO (bosentan) 1 hour before the start of the PET-scan. An additional dose (25 mg/kg for rifampicin in DMSO:PBS 40:60 v:v, 50 mg/kg for bosentan in DMSO) was co-injected intravenously with the tracer.
For each scan, 10 MBq of [^18F]FCA was administered intravenously and a 1 hour dynamic scan was started. Immediately after the dynamic scan, 18 MBq [^18F]FDG was injected intravenously. After 20 minutes, a 20 minutes static scan was taken.
PET-data were obtained in list-mode and were iteratively reconstructed (50 iterations) in frames of 15 seconds for the first 10 minutes, followed by 50 frames of 1 minute. ROI’s were drawn manually over liver, gallbladder and intestines using PMod software. A ROI was drawn in the left ventricle on the static [^18F]FDG scan to obtain an image-derived arterial blood input curve. The uptake of [^18F]FCA in arterial blood, liver, gallbladder and intestines was expressed as a % injected dose (% ID) and normalized for the weight of a 20 gram mouse. Time-activity curves (TAC’s) were generated using these values.
AUC, maximum % ID, and time to peak values were determined for the TAC’s with Graphpad Prism v3.00. Differences between 2 groups were determined with the non-parametric Mann-Whitney U test. P-values ≤ 0.05 were considered significant.

Series [5] can be described thus: LogD of [^18F]FCA in octanol/PBS pH 7.4. Type of series: physicochemical. The conditions noted are these: octanol/PBS 50:50 v:v, n = 3. As for the experimental part: 1 MBq of [^18F]FCA was used to spike an octanol/PBS 50:50 v:v pH 7.4 mixture in a test tube. After mixing and centrifugation (5 min; 1100 g), aliquots were taken from each layer and radioactivity was measured in a NaI (Tl) scintillation counter (Capintec; Ramsey, NJ, USA). The LogD value of [^18F]FCA was calculated as the logarithm of the ratio of counts in octanol and PBS.

The nature of series [6]: Dynamic PET of [^18F]FCA in wild-type FVB mice. In kind it is in vivo. The method, then:
Food and water was provided ad libitum. Animals were fasted overnight before the PET-scan.
A CT-scan was acquired for anatomical correlation.
In vivo characteristics of [^18F]FCA were investigated by a two hour dynamic PET scan with 30 MBq [^18F]FCA, injected intravenously (n = 3). Four and six hours post-injection, a 30 minute static scan was performed.
P-values ≤ 0.05 were considered significant.

Series [7] can be described thus: Stability of [^18F]FCA in its PBS formulation. Type of series: physicochemical. The conditions noted are these: PBS pH 7.4 formulation; room temperature.

By logD is commonly meant lipophilicity at a set pH, counting ionised and neutral species. Read a low logD as a more hydrophilic compound.

“And” between values parts separate entries of the source, which are not always exact repeats. Equal entries are not always repeated. “Also recorded” adds a separate entry of the source.

For the molecule `C[C@H](CCC(=O)O)[C@H]1CC[C@H]2[C@@H]3[C@H](O)C[C@@H]4C[C@@H]([18F])CC[C@]4(C)[C@H]3C[C@H](O)[C@]12C` [[^18F]FCA, 3β-[^18F]Fluorocholic Acid], the “time stable in presence of primary mouse hepatocytes” value in series [1] is given as “at least 1 hour”. Besides, the “degradation or metabolization products with primary mouse hepatocytes” value in series [1] (5, 10, 30 and 60 minutes) is “metabolically stable; also recorded: No degradation or metabolization products”. In series [2], this molecule gave a recovery at 5 min, 37 MBq/mL of 100%; a recovery at 10 min, 37 MBq/mL of 100%; a recovery at 30 min, 37 MBq/mL of 100%; a recovery at 60 min, 37 MBq/mL of 100%. Besides, the “time stable in presence of mouse serum” value in series [3] (37°C) was “at least 1 hour”. The “degradation or metabolization products in mouse serum” value in series [3] (37°C, 5, 10, 30 and 60 minutes) is reported as “No degradation or metabolization products”. In series [3] (mouse), the recovery at 5 min, 37 MBq/mL was found to be 100%; the recovery at 10 min, 37 MBq/mL was 100%; the recovery at 30 min, 37 MBq/mL is 100%; the recovery at 60 min, 37 MBq/mL was determined as 100%. For the same molecule, in series [4], the “AUC arterial blood % injected dose” value came out at 1.909 ± 0.572 % ID.min, the “AUC gallbladder & intestines % injected dose” value is reported as 3718 ± 182 % ID.min and the “Time to peak liver” value came to 5.5 ± 1.1 min. For the same molecule, the “Max % injected dose liver” value in series [4] (iv) worked out at 71.2 ± 3.5 % ID. In series [5], this molecule displayed a logD of 1.19 ± 0.1. In series [6] (IV, n = 3), the “AUC gallbladder & intestines % injected dose” value amounted to 4105 ± 36 % ID.min; the “Time to peak liver” value is 4.5 min and 4.5 ± 0.5 min. For the same molecule, the “Max % injected dose liver” value in series [6] (IV, n = 3, normalized for a 20 g mouse) was 71.8 % ID and 71.8 ± 1.2 % ID. The “uptake in urinary bladder or other organs” value in series [6] (PET/CT images up to 6 hours post-injection) is “no uptake in other organs than liver, gallbladder and intestines”. Further, in series [6] (after 1 hour), the “radioactivity in gallbladder and intestines” value was 93.3 ± 6.0 % ID and 93.3 % ID. The “time stable in PBS formulation” value in series [7] was “at least 6 hours”.

The record behind these values is article PMC5342262, “Synthesis, in vitro and in vivo evaluation of 3β-[^18F]fluorocholic acid for the detection of drug-induced cholestasis in mice” (PLoS ONE, 2017).
